# Measured values published in paper PMC6199744, “Development of Chemical Proteomics for the Folateome and Analysis of the Kinetoplastid Folateome” (ACS Infectious Diseases, 2018).
# Like-named read-outs stand apart in the source and are kept apart here.
# Assays:
# [1] = target: DIHYDROFOLATE REDUCTASE-T[…] (TB427.07.5480) (Trypanosoma brucei brucei, UniProt Q27783); test: Multitargeted bead mixture competition; assay type: binding; conditions: for fold change vs vehicle control: vehicle control = 1
# UniProt Q27783, sequence (Q27783 whole entry): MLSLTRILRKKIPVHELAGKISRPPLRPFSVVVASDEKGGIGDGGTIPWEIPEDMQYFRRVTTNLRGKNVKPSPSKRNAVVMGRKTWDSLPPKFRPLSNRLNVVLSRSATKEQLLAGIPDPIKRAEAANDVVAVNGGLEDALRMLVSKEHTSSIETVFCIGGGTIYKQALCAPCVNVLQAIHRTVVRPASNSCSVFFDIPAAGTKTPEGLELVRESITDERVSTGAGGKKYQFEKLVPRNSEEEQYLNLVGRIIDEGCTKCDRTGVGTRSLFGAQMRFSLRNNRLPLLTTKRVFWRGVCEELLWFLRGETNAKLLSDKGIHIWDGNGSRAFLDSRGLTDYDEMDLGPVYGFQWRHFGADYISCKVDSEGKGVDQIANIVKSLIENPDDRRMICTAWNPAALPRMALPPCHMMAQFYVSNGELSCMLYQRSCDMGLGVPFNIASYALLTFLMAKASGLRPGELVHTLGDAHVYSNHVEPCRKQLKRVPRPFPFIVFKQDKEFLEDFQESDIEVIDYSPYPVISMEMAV
# [2] = system: IRON/ASCORBATE OXIDOREDUCTASE FAMILY PROTEIN, PUTA (Tb427.02.6180); test: Multitargeted bead mixture competition; assay type: binding, T. brucei; conditions: for fold change: PUTATIVE
# [3] = target: T1, HeLa cell extract proteins (Homo sapiens, UniProt Q6P2E9); assay type: binding
# T1 construct: endogenous in cells; host or cells: HeLa cell extract
# T1 sequence (Q6P2E9 1-1401): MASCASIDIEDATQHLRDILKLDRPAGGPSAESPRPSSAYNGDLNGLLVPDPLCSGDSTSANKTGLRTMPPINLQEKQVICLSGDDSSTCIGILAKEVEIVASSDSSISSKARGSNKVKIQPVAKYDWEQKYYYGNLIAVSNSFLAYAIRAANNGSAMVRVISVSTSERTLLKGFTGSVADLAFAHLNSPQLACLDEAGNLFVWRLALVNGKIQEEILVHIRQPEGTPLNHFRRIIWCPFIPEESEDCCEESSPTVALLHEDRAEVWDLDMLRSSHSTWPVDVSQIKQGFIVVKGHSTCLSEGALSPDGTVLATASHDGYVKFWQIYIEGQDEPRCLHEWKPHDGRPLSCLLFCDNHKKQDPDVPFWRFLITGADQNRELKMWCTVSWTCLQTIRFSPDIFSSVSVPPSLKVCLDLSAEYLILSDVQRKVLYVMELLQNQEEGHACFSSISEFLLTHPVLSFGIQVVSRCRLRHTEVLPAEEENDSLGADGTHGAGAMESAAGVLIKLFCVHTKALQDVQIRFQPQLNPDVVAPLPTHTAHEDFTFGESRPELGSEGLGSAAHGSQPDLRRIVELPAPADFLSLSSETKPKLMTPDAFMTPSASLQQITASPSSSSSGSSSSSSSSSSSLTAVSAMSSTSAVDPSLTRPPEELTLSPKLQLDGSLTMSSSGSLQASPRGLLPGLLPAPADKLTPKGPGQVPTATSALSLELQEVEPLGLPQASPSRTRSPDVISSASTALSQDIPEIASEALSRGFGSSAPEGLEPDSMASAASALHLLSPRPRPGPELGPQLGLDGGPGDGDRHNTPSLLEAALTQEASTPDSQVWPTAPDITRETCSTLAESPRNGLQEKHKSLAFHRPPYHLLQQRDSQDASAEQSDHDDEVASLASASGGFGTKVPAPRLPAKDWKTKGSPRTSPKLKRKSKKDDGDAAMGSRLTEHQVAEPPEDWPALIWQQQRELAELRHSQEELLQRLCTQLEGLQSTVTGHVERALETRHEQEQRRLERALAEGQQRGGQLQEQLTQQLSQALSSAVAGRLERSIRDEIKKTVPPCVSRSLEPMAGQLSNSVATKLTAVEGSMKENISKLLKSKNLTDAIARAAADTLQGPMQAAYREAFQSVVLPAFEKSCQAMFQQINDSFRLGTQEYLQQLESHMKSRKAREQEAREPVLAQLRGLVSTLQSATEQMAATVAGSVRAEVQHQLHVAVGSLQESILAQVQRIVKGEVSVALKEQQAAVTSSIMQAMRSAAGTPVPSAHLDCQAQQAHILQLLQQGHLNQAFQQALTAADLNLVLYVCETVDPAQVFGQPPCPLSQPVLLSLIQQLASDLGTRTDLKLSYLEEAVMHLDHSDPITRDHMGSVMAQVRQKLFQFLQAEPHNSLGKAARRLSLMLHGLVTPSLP
# [4] = target: T2, HeLa cell extract proteins (Homo sapiens, UniProt Q9UPY5); assay type: binding
# T2 construct: endogenous in cells; host or cells: HeLa cell extract
# T2 sequence (Q9UPY5 1-501): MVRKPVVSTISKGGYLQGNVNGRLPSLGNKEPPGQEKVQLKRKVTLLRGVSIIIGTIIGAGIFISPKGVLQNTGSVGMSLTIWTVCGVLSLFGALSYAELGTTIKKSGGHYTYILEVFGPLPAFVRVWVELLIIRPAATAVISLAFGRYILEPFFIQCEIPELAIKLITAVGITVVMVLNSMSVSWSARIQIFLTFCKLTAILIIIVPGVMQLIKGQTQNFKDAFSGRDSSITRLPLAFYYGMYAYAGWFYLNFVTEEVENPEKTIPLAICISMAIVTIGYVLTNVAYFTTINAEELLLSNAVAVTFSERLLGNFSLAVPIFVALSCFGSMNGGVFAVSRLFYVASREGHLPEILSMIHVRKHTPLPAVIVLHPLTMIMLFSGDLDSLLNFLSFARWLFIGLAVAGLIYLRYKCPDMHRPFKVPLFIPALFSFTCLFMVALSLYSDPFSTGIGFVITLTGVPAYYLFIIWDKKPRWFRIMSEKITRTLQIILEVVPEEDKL
# [5] = target: T3, HeLa cell extract proteins (Homo sapiens, UniProt Q13409); assay type: binding
# T3 construct: endogenous in cells; host or cells: HeLa cell extract
# T3 sequence (Q13409 whole entry): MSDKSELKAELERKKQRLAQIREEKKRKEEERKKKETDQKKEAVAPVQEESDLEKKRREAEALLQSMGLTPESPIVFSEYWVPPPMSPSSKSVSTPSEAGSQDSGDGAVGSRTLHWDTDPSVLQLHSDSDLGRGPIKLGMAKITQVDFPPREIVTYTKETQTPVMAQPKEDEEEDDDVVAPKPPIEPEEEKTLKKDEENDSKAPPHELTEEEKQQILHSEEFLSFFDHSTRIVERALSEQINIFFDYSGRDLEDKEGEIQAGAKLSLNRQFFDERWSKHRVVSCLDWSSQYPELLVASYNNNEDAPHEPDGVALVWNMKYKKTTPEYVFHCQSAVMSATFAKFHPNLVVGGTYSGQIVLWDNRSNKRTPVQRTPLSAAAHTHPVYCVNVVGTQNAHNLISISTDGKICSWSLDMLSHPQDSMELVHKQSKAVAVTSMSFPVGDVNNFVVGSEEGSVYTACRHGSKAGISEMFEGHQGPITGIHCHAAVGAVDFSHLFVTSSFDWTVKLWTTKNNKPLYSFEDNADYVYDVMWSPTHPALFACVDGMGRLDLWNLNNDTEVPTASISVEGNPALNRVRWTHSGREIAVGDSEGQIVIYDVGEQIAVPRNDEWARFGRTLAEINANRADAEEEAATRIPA
# [6] = target: T4, HeLa cell extract proteins (Homo sapiens, UniProt P61457); assay type: binding
# T4 construct: endogenous in cells; host or cells: HeLa cell extract
# T4 sequence (P61457 1-104): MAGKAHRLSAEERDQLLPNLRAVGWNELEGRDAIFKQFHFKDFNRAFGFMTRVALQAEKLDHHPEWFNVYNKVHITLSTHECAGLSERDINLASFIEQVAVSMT
# [7] = target: T5, HeLa cell extract proteins (Homo sapiens, UniProt P16070); assay type: binding
# T5 construct: endogenous in cells; host or cells: HeLa cell extract
# T5 sequence (P16070 21-742): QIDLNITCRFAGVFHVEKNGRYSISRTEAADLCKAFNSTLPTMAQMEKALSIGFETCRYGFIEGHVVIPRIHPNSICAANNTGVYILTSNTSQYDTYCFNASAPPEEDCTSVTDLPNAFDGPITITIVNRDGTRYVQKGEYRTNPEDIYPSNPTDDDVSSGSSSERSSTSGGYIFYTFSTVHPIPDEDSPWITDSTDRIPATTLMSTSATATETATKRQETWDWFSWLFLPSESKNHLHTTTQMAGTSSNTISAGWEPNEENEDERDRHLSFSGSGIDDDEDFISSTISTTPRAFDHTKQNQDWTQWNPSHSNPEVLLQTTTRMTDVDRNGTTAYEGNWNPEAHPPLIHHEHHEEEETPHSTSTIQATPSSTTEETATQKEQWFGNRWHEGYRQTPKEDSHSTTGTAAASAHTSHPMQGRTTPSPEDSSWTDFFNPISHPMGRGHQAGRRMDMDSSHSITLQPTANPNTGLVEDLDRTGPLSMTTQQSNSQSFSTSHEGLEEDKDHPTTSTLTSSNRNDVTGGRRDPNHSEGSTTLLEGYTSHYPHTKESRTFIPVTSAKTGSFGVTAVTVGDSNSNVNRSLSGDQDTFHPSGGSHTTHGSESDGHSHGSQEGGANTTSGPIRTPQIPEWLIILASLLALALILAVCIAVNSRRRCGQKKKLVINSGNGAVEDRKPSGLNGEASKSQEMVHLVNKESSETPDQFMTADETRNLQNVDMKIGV
# [8] = target: T6, HeLa cell extract proteins (Homo sapiens, UniProt Q13155); assay type: binding
# T6 construct: endogenous in cells; host or cells: HeLa cell extract
# T6 sequence (Q13155 1-320): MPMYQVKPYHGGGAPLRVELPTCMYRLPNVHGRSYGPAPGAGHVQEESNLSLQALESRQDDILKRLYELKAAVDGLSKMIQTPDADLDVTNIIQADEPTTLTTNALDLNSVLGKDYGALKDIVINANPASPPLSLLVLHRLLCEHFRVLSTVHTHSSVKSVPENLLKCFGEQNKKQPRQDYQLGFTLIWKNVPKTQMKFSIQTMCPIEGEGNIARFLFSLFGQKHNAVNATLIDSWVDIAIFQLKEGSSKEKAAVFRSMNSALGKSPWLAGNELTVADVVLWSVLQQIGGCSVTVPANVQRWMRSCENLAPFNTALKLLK
# [9] = system: glutamate 5′-kinase (LmjF.26.2710); test: Multitargeted bead mixture competition; assay type: binding, Leishmania; conditions: for fold change / fold change vs vehicle control: protein LMJF.26.2710 GLUTAMATE 5-KINASE, PUTATIVE; for fold change: vehicle control = 1
# [10] = protein TB427.07.5480 DIH[…]-T[…]
# [11] = relative to vehicle control = 1, protein TB427.02.6180 IRON/ASCORBATE OXIDOREDUCTASE FAMILY PROTEIN
# [12] = protein TB427.02.6180 IRON/ASCORBATE OXID[…] PROTEIN, vehicle control = 1
# [13] = protein TB427.02.6180 IRON/ASCORBATE OXIDOREDUCTASE FAMILY PROTEIN, vehicle control = 1
SMILES,"fold change - vehicle control [1, 10]","fold changes relative to vehicle control ([3]; HeLa, protein EDC4)","fold changes relative to vehicle control ([4]; captured protein SLC7A11, HeLa)","fold changes relative to vehicle control ([5]; HeLa, protein DYNC1I2)","fold changes relative to vehicle control ([6]; captured protein PCBD1, HeLa)","fold changes relative to vehicle control ([7]; protein CD44, HeLa)","fold changes relative to vehicle control ([8]; captured protein JTV1, HeLa)",fold change [9],"fold change vs vehicle control [1, 10]","fold changes relative to vehicle control ([4]; HeLa, captured protein SLC7A11)","fold changes relative to vehicle control ([6]; HeLa, captured protein PCBD1)","fold changes relative to vehicle control ([8]; HeLa, captured protein JTV1)",fold change vs vehicle control [9],also measured
Nc1nc2cccc(-c3ccccc3)c2n1Cc1ccc(Cl)c(Cl)c1 [compound 3],0.98,0.98,0.99,0.89,1.29,1.49,0.89,1.05,–,–,–,–,–,"percentage of competition from bead binding ([1]; multitargeted bead mixture, free ligand 100 μM, T. brucei lysate, TB427.07.5480 DHFR-TS): -11%; percentage of competition from bead binding ([2]; multitargeted bead mixture, free ligand 100 μM, T. brucei lysate, Tb427.02.6180): 0%; fold change ([2]; relative to vehicle control = 1, protein TB427.02.6180 IRON/ASCORBATE OXID[…] PROTEIN): 0.9"
CCCCCCOc1ccc(Cc2cnc(N)nc2N)cc1 [compound 1],1.45,0.87,0.98,0.88,1.01,1.08,1.04,1.07,–,–,–,–,–,"fold change [2, 11]: 0.85"
NCCCNc1ccc(C(=O)NC(CCC(=O)O)C(=O)O)cc1 (stereo not drawn) [compound 7],–,0.97,–,0.95,–,1.06,–,–,0.98,0.95,1.48,0.85,1,"fold change [2, 12]: 1.02"
CCCCCCOc1cccc(Cc2cnc(N)nc2N)c1 [compound 2],1.44,1.12,0.92,1.13,0.96,1.42,1.16,1.07,–,–,–,–,–,"fold change [2, 11]: 0.92"
NCCOCCOCC(=O)Nc1nc2ncc(CNc3ccc(C(=O)NC(CCC(=O)O)C(=O)O)cc3)nc2c(=O)[nH]1 (stereo not drawn) [compound 6],–,1.03,–,0.93,–,1.3,–,–,1.09,0.93,1.58,0.89,1.06,"fold change [2, 13]: 0.28"
"Nc1nc2[nH]cc(CCc3ccc(C(=O)N[C@@H](CCC(=O)O)C(=O)O)cc3)c2c(=O)[nH]1 [PTX, pemetrexed]",–,–,–,–,–,–,–,–,–,–,–,–,0.14,"fold change vs vehicle control ([1]; protein TB427.07.5480 DIHYDROFOLATE REDUCTASE-T[…]): 1.19; fold change [2, 12]: 0.95; fold changes relative to vehicle control [3]: 1.02; fold changes relative to vehicle control [4]: 0.91; fold changes relative to vehicle control [5]: 0.94; fold changes relative to vehicle control [6]: 1.68; fold changes relative to vehicle control [7]: 1.04; fold changes relative to vehicle control [8]: 0.9; association with glutamate 5′-kinase (LmjF.26.2710) ([9]; bead mixture, Leishmania lysates): strongly associated"
"Nc1nc2c(c(=O)[nH]1)N(C=O)C(CNc1ccc(C(=O)N[C@@H](CCC(=O)O)C(=O)O)cc1)CN2 (stereo partly drawn) [LEU, leucovorin]",–,1.03,–,0.9,–,1.08,–,–,1.45,0.96,1.4,1.04,1.15,"fold change [2, 13]: 0.92"
